Measurements from the supplement of paper PMC8671470.

How the values were obtained:
Assay in all cases: cell viability (% survival relative to DMSO control, bortezomib = 0%); higher = less cytotoxic
Settings in all cases: 72 h
K-562 = tested on: K-562
How it was run: (§1)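 After 72 h at 37 °C with 5% CO2, cell viability in 384-well plates was measured by CellTiter-Glo luminescence. The plates held compounds pre-printed at 1, 10, 100, 1000 or 10000 nM in duplicate, and cells from 10 AML and 5 CML lines seeded at densities titrated to linear growth. Percent survival is the duplicate mean, normalised to vehicle as 100% and a 10 µM positive control as 0%.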

MOLM-13 = tested on: MOLM-13
How it was run: as §1

HL-60 = tested on: HL-60
How it was run: as §1

THP-1 = tested on: THP-1
How it was run: as §1

Row | Compound | cell viability (K-562; 1 nM) [%] | cell viability (K-562; 10 nM) [%] | cell viability (K-562; 100 nM) [%] | cell viability (K-562; 1000 nM) [%] | cell viability (K-562; 10000 nM) [%] | cell viability (MOLM-13; 1 nM) [%] | cell viability (MOLM-13; 10 nM) [%] | cell viability (MOLM-13; 100 nM) [%] | cell viability (MOLM-13; 1000 nM) [%] | cell viability (MOLM-13; 10000 nM) [%] | cell viability (HL-60; 1 nM) [%] | cell viability (HL-60; 10 nM) [%] | cell viability (HL-60; 100 nM) [%] | cell viability (HL-60; 1000 nM) [%] | cell viability (HL-60; 10000 nM) [%] | cell viability (THP-1; 1 nM) [%] | cell viability (THP-1; 10 nM) [%] | cell viability (THP-1; 100 nM) [%] | cell viability (THP-1; 1000 nM) [%] | cell viability (THP-1; 10000 nM) [%]
1 | c1ccc2c(c1)OCC(=C1NCCN1)O2 [Idazoxan] | 80 | 98.1 | 90.7 | 100 | 90.9 | 97.2 | 109 | 95.1 | 89.5 | 102 | 89.1 | 80.3 | 80 | 97.2 | 75.9 | 104 | 107 | 83.3 | 91.4 | 103
2 | CCOC(=O)[C@@]1(CCCCCCOc2ccc(Cl)cc2)CO1 [Etomoxir] | 113 | 95.8 | 86.5 | 93.2 | 71.8 | 134 | 99.7 | 93.1 | 92 | 93 | 77.7 | 74.7 | 83.3 | 98.5 | 69.5 | 98.3 | 105 | 97.3 | 96.4 | 102
3 | CC(C)C[C@H](NC(=O)[C@@H](O)[C@H](N)Cc1ccccc1)C(=O)O [Ubenimex] | 111 | 102 | 113 | 89.6 | 102 | 110 | 100 | 114 | 94.8 | 94.3 | 98.3 | 124 | 98.7 | 77.9 | 97 | 89.2 | 97.9 | 93.1 | 84.8 | 94.8
4 | Cl.OC[C@H]1NC[C@@H](O)[C@@H](O)[C@@H]1O [1-Deoxymannojirimycin hydrochloride] | 93.7 | 70.4 | 104 | 103 | 91.6 | 115 | 88.3 | 96.3 | 104 | 105 | 98.5 | 79.5 | 102 | 124 | 80.5 | 107 | 91 | 98 | 102 | 91.9
5 | O=C(O)CCc1ccc(NCc2cccc(Oc3ccccc3)c2)cc1 [GW9508] | 109 | 88.8 | 100 | 94.2 | 120 | 98.9 | 91.7 | 92.1 | 89.6 | 104 | 90 | 94.3 | 104 | 103 | 83.5 | 95.1 | 101 | 104 | 111 | 111
6 | Clc1ccc2c(c1Cl)CNCC2 | 103 | 97.7 | 95.4 | 107 | 88.7 | 102 | 125 | 70.3 | 92.3 | 83.7 | 101 | 194 | 90.1 | 103 | 95.8 | 98.8 | 99.4 | 99.7 | 105 | 90.5
7 | C[C@]12O[C@H](C[C@]1(O)CO)n1c3ccccc3c3c4c(c5c6ccccc6n2c5c31)CNC4=O [Lestaurtinib] | 94.2 | 94.3 | 64.5 | 13.5 | 2.74 | 78.5 | 14.4 | -0.694 | 1.23 | -0.369 | 91.8 | 77.6 | 44.5 | 17.5 | 0.00654 | 94.4 | 105 | 87.2 | 46 | 0.505
8 | O=c1c2ccccc2[se]n1-c1ccccc1 [Ebselen] | 96.6 | 102 | 91 | 90.5 | 72.3 | 104 | 97.9 | 108 | 92.5 | 115 | 107 | 94.8 | 102 | 95.6 | 77.6 | 94.9 | 95.1 | 93 | 98.7 | 81.8
9 | Oc1cc(Cl)ccc1Oc1ccc(Cl)cc1Cl [Triclosan] | 103 | 105 | 93.8 | 106 | 66.6 | 102 | 90.9 | 103 | 86.7 | 109 | 90.3 | 76.6 | 85.1 | 106 | 102 | 92.7 | 98.5 | 103 | 108 | 92
10 | Clc1ccc(COC(Cn2ccnc2)c2ccc(Cl)cc2Cl)cc1 (stereo not given) [Econazole] | 97.4 | 89.8 | 93.1 | 69 | 38.1 | 79.3 | 140 | 84.8 | 58.7 | 29.2 | 120 | 80.3 | 109 | 81.2 | 41.5 | 102 | 94.9 | 95.7 | 87.9 | 62
11 | CCN(CC)CCN(Cc1ccc(-c2ccc(C(F)(F)F)cc2)cc1)C(=O)Cn1c(SCc2ccc(F)cc2)nc(=O)c2c1CCC2 [Darapladib] | 99.1 | 122 | 81.6 | 73.6 | -0.273 | 123 | 94.6 | 88.2 | 83.8 | -0.315 | 101 | 95.7 | 101 | 81.9 | -0.402 | 107 | 98.8 | 100 | 96.3 | -0.44
12 | Cc1noc2c1-c1ccccc1C(c1ccc(Cl)cc1)=N[C@H]2CC(N)=O [CPI-0610] | 87.7 | 88.2 | 80.7 | 32.1 | 34.5 | 74.3 | 88.2 | 73.5 | 5.96 | 3.86 | 110 | 102 | 69.4 | 33 | 16.1 | 103 | 95.9 | 88.6 | 51.1 | 40.2
13 | COc1c(C)c2c(c(O)c1C/C=C(\C)CCC(=O)O)C(=O)OC2 [Mycophenolic acid] | 91.3 | 102 | 91.5 | 36.5 | 13.6 | 109 | 109 | 70.9 | 13 | 2.42 | 108 | 117 | 80 | 51.3 | 18.4 | 112 | 95.7 | 103 | 97.5 | 59.2
14 | CN(C)c1nc(O)c2[nH]cnc2n1 [2-Dimethylamino-6-hydroxypurine] | 108 | 89.2 | 92.2 | 117 | 92 | 96.1 | 65.7 | 104 | 91 | 66.9 | 103 | 81.4 | 79.9 | 110 | 90.1 | 95.1 | 94.5 | 86.6 | 97.3 | 97.3
15 | O=C1Nc2ccccc2/C1=C\NCCc1ccc(O)c(O)c1 [AC1NZZMF] | 90.1 | 112 | 99.7 | 122 | 96.6 | 97.6 | 104 | 101 | 108 | 88.9 | 76.8 | 102 | 82.5 | 96.8 | 86.8 | 108 | 103 | 100 | 108 | 79.9
16 | CCCc1nn(C)c2c(O)nc(-c3cc(S(=O)(=O)N4CCN(C)CC4)ccc3OCC)nc12 [Sildenafil] | 91.1 | 93 | 94.9 | 110 | 103 | 101 | 112 | 96.3 | 125 | 106 | 99.7 | 88.7 | 100 | 82.9 | 111 | 90.3 | 99.4 | 97.1 | 99.8 | 101
17 | CCOc1ccc(Cc2cc([C@@H]3O[C@H](CO)[C@@H](O)[C@H](O)[C@H]3O)ccc2Cl)cc1 [Dapagliflozin] | 98.9 | 108 | 81.4 | 101 | 94.6 | 92.8 | 111 | 91.1 | 103 | 121 | 101 | 86.8 | 81.3 | 94.4 | 104 | 88.4 | 100 | 86.4 | 101 | 90.1
18 | CC(Cc1ccc(O)c(O)c1)C(C)Cc1ccc(O)c(O)c1 (stereo not given) [Masoprocol] | 87.2 | 109 | 105 | 95.8 | 76.7 | 98.4 | 106 | 110 | 91.2 | 65.8 | 89 | 81.2 | 118 | 90 | 6.31 | 95.4 | 98.4 | 96.2 | 93.4 | 85.9
19 | O=P(O)(O)C(O)(Cn1ccnc1)P(=O)(O)O [Zoledronic acid] | 105 | 101 | 106 | 98.6 | 102 | 99.2 | 117 | 103 | 84.5 | 99.8 | 84.3 | 111 | 105 | 98.3 | 111 | 104 | 105 | 91.5 | 89.1 | 99.5
20 | Cc1ccc(S(=O)(=O)NC2c3ccccc3Oc3ccccc32)cc1 [AH-7614] | 92 | 95.9 | 89.9 | 98.1 | 76.4 | 95.3 | 113 | 111 | 102 | 93.7 | 103 | 112 | 87.8 | 94.5 | 86.2 | 96.9 | 96.7 | 99 | 96.7 | 100
21 | O=C(O)C(S)=Cc1c[nH]c2ccc(F)cc12 | 91 | 95.7 | 90.1 | 116 | 85.9 | 95.9 | 103 | 99.9 | 107 | 77.3 | 98.3 | 103 | 111 | 66.7 | 90.7 | 99.1 | 97.6 | 98 | 113 | 101
22 | NC(=O)c1ncn([C@@H]2O[C@H](CO)[C@@H](O)[C@H]2O)n1 [Ribavirin] | 82.4 | 95.1 | 119 | 107 | 103 | 87.6 | 88 | 84.1 | 129 | 62.9 | 92.6 | 101 | 130 | 110 | 149 | 96.5 | 103 | 107 | 107 | 112
23 | C[C@]12CC[C@H](O)CC1=CC[C@@H]1[C@@H]2CC[C@]2(C)C(c3cccnc3)=CC[C@@H]12 [Abiraterone] | 109 | 113 | 107 | 112 | 89.4 | 113 | 122 | 111 | 117 | 69.9 | 142 | 97.7 | 136 | 80.3 | 124 | 99.4 | 102 | 104 | 113 | 108
24 | C[C@H]1O[C@@H](O[C@H]2[C@@H](O)C[C@H](O[C@H]3[C@@H](O)C[C@H](O[C@H]4CC[C@@]5(C)[C@H](CC[C@@H]6[C@@H]5C[C@@H](O)[C@]5(C)[C@@H](C7=CC(=O)OC7)CC[C@]65O)C4)O[C@@H]3C)O[C@@H]2C)C[C@H](O)[C@@H]1O [Digoxin] | 95.2 | 107 | 41.8 | -0.121 | 0.146 | 105 | 105 | 0.137 | -0.695 | 0.435 | 104 | 107 | -0.615 | -0.309 | -0.00704 | 85.8 | 95.6 | 32.6 | 0.766 | -0.172
